Test results as given in patent US10266806B2, “Stem cell-derived hepatocytes in co-culture and uses thereof” (Colorado State University Research Foundation, priority 2014, dated 2019).
Counter-ions that a name gives are not always drawn.

Tests used:
[1] = negative number: withdrawn from the market; higher positive numbers: greater DILI concern; cited from earlier work
[2] = tested on: primary human hepatocytes in MPCCs; conditions: (ref 19), cited from earlier work; for TC50 in MPCCs ATP: concentration at which activity decreases by 50% of DMSO-only controls
[3] = total human plasma concentration; cited from earlier work
iHeps in iMPCCs = conditions: for TC50 in MPCCs ATP / TC50 in MPCCs Albumin / TC50 in MPCCs Urea: human, 6 days

## CCc1oc2ccccc2c1C(=O)c1cc(Br)c(O)c(Br)c1 [Benzbromarone]
[1]
  DILI Sev (DILI severity scores from the LTKB of the FDA): −2
[2]
  TC50 in MPCCs Albumin: 31.3 µM
  TC50 in MPCCs Urea: 27.9 µM
  TC50 in MPCCs ATP: 15.1 µM
[3]
  Cmax: 4360 nM

## CCCCC1C(=O)N(c2ccccc2)N(c2ccccc2)C1=O [Phenylbutazone]
[2]
  TC50 in MPCCs Albumin: 6414.4 µM
  TC50 in MPCCs Urea: 2532.0 µM
  TC50 in MPCCs ATP: 7566.7 µM
[3]
  Cmax: 487000 nM

## CC(=O)[C@H]1CC[C@H]2[C@@H]3CCC4=CC(=O)CC[C@]4(C)[C@H]3CC[C@]12C [Progesterone]
[3]
  Cmax: 193 nM

## C[C@]12C=CC(=O)C=C1CC[C@@H]1[C@@H]2C(=O)C[C@@]2(C)[C@H]1CC[C@]2(O)C(=O)CO [Prednisone]
[3]
  Cmax: 68 nM
iHeps in iMPCCs
  Model predictions iMPCC (binary decision): −

## C[C@]12CC[C@@H]3c4ccc(O)cc4CC[C@H]3[C@@H]1CCC2=O [Estrone]
[3]
  Cmax: 22 nM

## O=c1n(CCCN2CCN(c3cccc(Cl)c3)CC2)nc2ccccn12 [Trazodone HCl]
[2]
  TC50 in MPCCs Albumin: 64.8 µM
  TC50 in MPCCs Urea: 121.8 µM
  TC50 in MPCCs ATP: 201.7 µM
[3]
  Cmax: 5060 nM
iHeps in iMPCCs
  TC50 in MPCCs ATP: 351.5 µM
  TC50 in MPCCs Albumin: 205.5 µM
  TC50 in MPCCs Urea: 272.4 µM

## O=C1CC2(CCCC2)CC(=O)N1CCCCN1CCN(c2ncccn2)CC1 [Buspirone]
[1]
  DILI Sev (DILI severity scores from the LTKB of the FDA): 3
[3]
  Cmax: 5 nM

## CNCCC=C1c2ccccc2CCc2ccccc21 [Nortriptyline HCl]
[1]
  DILI Sev (DILI severity scores from the LTKB of the FDA): 8
[3]
  Cmax: 122 nM

## CN(C)CCCN1c2ccccc2CCc2ccccc21 [Imipramine HCl]
[1]
  DILI Sev (DILI severity scores from the LTKB of the FDA): 3

## CCN(CC)C(=O)/C(C#N)=C/c1cc(O)c(O)c([N+](=O)[O-])c1 [entacapone]
iHeps in iMPCCs
  albumin secretions in iMPCCs, toxicity over time and dose: time- and dose-dependent toxicities

## Cn1cc[nH]c1=S [Methimazole]
[3]
  Cmax: 1870 nM

## CC(=O)Oc1ccccc1C(=O)O [Aspirin]
iHeps in iCCs
  Model predictions iCC (binary decision): −
[3]
  Cmax: 5530 nM
iMPCCs
  albumin production in iMPCCs: minimally affected
  urea production in iMPCCs: minimally affected
iHeps in iMPCCs
  Model predictions iMPCC (binary decision): −

## O=C(O)Cc1ccccc1Nc1c(Cl)cccc1Cl [Diclofenac]
[2]
  TC50 in MPCCs Albumin: 141.9 µM
  TC50 in MPCCs Urea: 206.2 µM
  TC50 in MPCCs ATP: 638.4 µM

## NC(=O)c1cnccn1 [Pyrazinamide]
iHeps in iCCs
  Model predictions iCC (binary decision): −
  toxicity call in iCCs: non-toxic
[1]
  DILI Sev (DILI severity scores from the LTKB of the FDA): 3
[2]
  TC50 in MPCCs Albumin: 20420.3 µM
  TC50 in MPCCs Urea: 14781.6 µM
  TC50 in MPCCs ATP: 19695.5 µM
[3]
  Cmax: 407000 nM
iHeps in iMPCCs
  toxicity call in iMPCCs / iHeps: toxic
  TC50 in MPCCs Albumin: 33457.5 µM

## CNCCc1ccccn1.Cl.Cl [Betahistine 2HCl]
[1]
  DILI Sev (DILI severity scores from the LTKB of the FDA): 6
[3]
  Cmax: 4 nM
iHeps in iMPCCs
  Model predictions iMPCC (binary decision): −

## CCCCCCCCCCCCCCCC(=O)OC[C@@H](NC(=O)C(Cl)Cl)[C@H](O)c1ccc([N+](=O)[O-])cc1 [Chloramphenicol palmitate]
[3]
  Cmax: 20000 nM
iHeps in iMPCCs
  Model predictions iMPCC (binary decision): −

## NC(=O)NO [Hydroxyurea]
[2]
  TC50 in MPCCs Albumin: 28616.2 µM
  TC50 in MPCCs Urea: 19647.8 µM
  TC50 in MPCCs ATP: 7407.0 µM
[3]
  Cmax: 794000 nM
iHeps in iMPCCs
  TC50 in MPCCs ATP: 49358.3 µM
  TC50 in MPCCs Albumin: 18398.4 µM

## C[C@@H]1C[C@H]2[C@@H]3CCC4=CC(=O)C=C[C@]4(C)[C@@]3(F)[C@@H](O)C[C@]2(C)[C@@]1(O)C(=O)CO [Dexamethasone]
iHeps in iCCs
  Model predictions iCC (binary decision): −
[1]
  DILI Sev (DILI severity scores from the LTKB of the FDA): 3
[3]
  Cmax: 224 nM
iHeps in iMPCCs
  Model predictions iMPCC (binary decision): −

## Cc1cccc(Nc2ccccc2C(=O)O)c1C [Mefenamic acid]
[2]
  TC50 in MPCCs Albumin: 1291.9 µM
  TC50 in MPCCs Urea: 1255.1 µM
  TC50 in MPCCs ATP: 1393.4 µM
[3]
  Cmax: 27000 nM
iHeps in iMPCCs
  TC50 in MPCCs ATP: 2551.9 µM
  TC50 in MPCCs Albumin: 410.3 µM
  TC50 in MPCCs Urea: 572.3 µM

## CC(=O)Nc1ccc(O)cc1 [Acetaminophen]
iMPCCs
  albumin production in iMPCCs: declined significantly
  urea production in iMPCCs: declined significantly

## C=C[C@H]1C[N@@]2CC[C@H]1C[C@H]2[C@H](O)c1ccnc2ccc(OC)cc12 [Quinine]
[2]
  TC50 in MPCCs Albumin: 251.6 µM
  TC50 in MPCCs Urea: 285.2 µM
  TC50 in MPCCs ATP: 259.1 µM
[3]
  Cmax: 9250 nM
iHeps in iMPCCs
  TC50 in MPCCs ATP: 182.2 µM
  TC50 in MPCCs Albumin: 115.7 µM
  TC50 in MPCCs Urea: 127.9 µM

## O=C(O)c1cn(C2CC2)c2cc(N3CCNCC3)c(F)cc2c1=O [Ciprofloxacin HCl]
iHeps in iMPCCs
  TC50 in MPCCs ATP: 804.2 µM
  TC50 in MPCCs Albumin: 525.3 µM
  TC50 in MPCCs Urea: 326.3 µM

## CCN(CC)CCOc1ccc(C(=C(Cl)c2ccccc2)c2ccccc2)cc1 [Clomiphene citrate]
[3]
  Cmax: 22 nM
iHeps in iMPCCs
  Model predictions iMPCC (binary decision): −

## CC(C)NCC(O)COc1cccc2ccccc12 (centres unmarked) [Propranolol]
[3]
  Cmax: 201 nM
iHeps in iMPCCs
  Model predictions iMPCC (binary decision): −

## Clc1ccc(COC(Cn2ccnc2)c2ccc(Cl)cc2Cl)c(Cl)c1 (centres unmarked) [Miconazole]
[3]
  Cmax: 24 nM
iHeps in iMPCCs
  Model predictions iMPCC (binary decision): −

## CCOc1ccc(NC(C)=O)cc1 [Phenacetin]
iHeps in iCCs
  Model predictions iCC (binary decision): −
  toxicity call in iCCs: not identified as toxic
[2]
  TC50 in MPCCs Urea: 1076.1 µM
[3]
  Cmax: 13400 nM
iHeps in iMPCCs
  TC50 in MPCCs Albumin: 1213.3 µM
  TC50 in MPCCs Urea: 253.3 µM

## C#C[C@]1(O)CC[C@H]2[C@@H]3CCC4=Cc5oncc5C[C@]4(C)[C@H]3CC[C@@]21C [Danazol]
[3]
  Cmax: 74 nM

## Cc1ccc(N(CC2=NCCN2)c2cccc(O)c2)cc1 [Phentolamine mesylate]
[3]
  Cmax: 86 nM
iHeps in iMPCCs
  Model predictions iMPCC (binary decision): −

## Cc1ccc(C(=O)c2cc(O)c(O)c([N+](=O)[O-])c2)cc1 [tolcapone]
iMPCCs
  albumin production in iMPCCs: declined significantly
  urea production in iMPCCs: declined significantly
iHeps in iMPCCs
  albumin secretions in iMPCCs, toxicity over time and dose: time- and dose-dependent toxicities

## CN1C(C(=O)Nc2ccccn2)=C(O)c2ccccc2S1(=O)=O [Piroxicam]
[1]
  DILI Sev (DILI severity scores from the LTKB of the FDA): 3
[3]
  Cmax: 5140 nM
iHeps in iMPCCs
  toxicity call in iMPCCs / iHeps: toxic

## CN(CCOc1ccc(CC2SC(=O)NC2=O)cc1)c1ccccn1 (centres unmarked) [Rosiglitazone]
[3]
  Cmax: 1120 nM

## CC/C(=C(\c1ccccc1)c1ccc(OCCN(C)C)cc1)c1ccccc1 [Tamoxifen]
iHeps in iCCs
  Model predictions iCC (binary decision): −
[2]
  TC50 in MPCCs Albumin: 3.2 µM
  TC50 in MPCCs Urea: 3.9 µM
  TC50 in MPCCs ATP: 15.8 µM
[3]
  Cmax: 162 nM
iHeps in iMPCCs
  TC50 in MPCCs Albumin: 4.2 µM
  TC50 in MPCCs Urea: 11.7 µM

## CC(=O)CC(c1ccccc1)c1c(O)c2ccccc2oc1=O (centres unmarked) [Warfarin]
[3]
  Cmax: 4890 nM

## C#CC1(O)CC[C@H]2[C@@H]3CCC4=CC(=O)CC[C@@H]4[C@H]3CC[C@@]21CC (mixture of isomers) [Norgestrel]
[3]
  Cmax: 9 nM

## CC(=O)O[C@]1(C(C)=O)CC[C@H]2[C@@H]3C=C(Cl)C4=CC(=O)[C@@H]5C[C@@H]5[C@]4(C)[C@H]3CC[C@@]21C [Cyproterone acetate]
iHeps in iCCs
  Model predictions iCC (binary decision): −
  toxicity call in iCCs: non-toxic
[2]
  TC50 in MPCCs Urea: 41.0 µM
  TC50 in MPCCs ATP: 39.1 µM
[3]
  Cmax: 656 nM
iHeps in iMPCCs
  toxicity call in iMPCCs / iHeps: toxic
  TC50 in MPCCs Albumin: 51.0 µM
  TC50 in MPCCs Urea: 33.1 µM

## CN(C)CCCN1c2ccccc2CCc2ccc(Cl)cc21 [Clomipramine]
[2]
  TC50 in MPCCs Albumin: 9.4 µM
  TC50 in MPCCs Urea: 9.9 µM
  TC50 in MPCCs ATP: 12.0 µM
iHeps in iMPCCs
  TC50 in MPCCs Albumin: 9.4 µM
  TC50 in MPCCs Urea: 13.8 µM

## COC(=O)Nc1nc2ccc(C(=O)c3ccccc3)cc2[nH]1 [Mebendazole]
[2]
  TC50 in MPCCs Albumin: 11.6 µM
  TC50 in MPCCs ATP: 11.5 µM
[3]
  Cmax: 126 nM
iHeps in iMPCCs
  TC50 in MPCCs Albumin: 1.9 µM
  TC50 in MPCCs Urea: 2.3 µM

## C[C@H](CS)C(=O)N1CCC[C@H]1C(=O)O [Captopril]
[3]
  Cmax: 4280 nM
